Data as given in ChEMBL document CHEMBL1143499, “Fused pyrimidine based inhibitors of phosphodiesterase 7 (PDE7): synthesis and initial structure-activity relationships” (Bioorg Med Chem Lett, 2005).
pIC50: −log10 of the molar value.

Assays:
[1] = Relative binding to Phosphodiesterase 1 and Phosphodiesterase 7, ratio of IC50
[2] = Relative binding to Phosphodiesterase 2 and Phosphodiesterase 7, ratio of IC50
[3] = Relative binding to Phosphodiesterase 3 and Phosphodiesterase 7, ratio of IC50
[4] = Relative binding to Phosphodiesterase 4 and Phosphodiesterase 7, ratio of IC50
[5] = Relative binding to Phosphodiesterase 5 and Phosphodiesterase 7, ratio of IC50
[6] = Inhibition of Phosphodiesterase 7
[7] = Inhibition of Phosphodiesterase 1
[8] = biological target: cGMP-dependent 3',5'-cyclic phosphodiesterase (Homo sapiens, UniProt O00408); test: Inhibition of Phosphodiesterase 2
cGMP-dependent 3',5'-cyclic phosphodiesterase, sequence (O00408 whole entry): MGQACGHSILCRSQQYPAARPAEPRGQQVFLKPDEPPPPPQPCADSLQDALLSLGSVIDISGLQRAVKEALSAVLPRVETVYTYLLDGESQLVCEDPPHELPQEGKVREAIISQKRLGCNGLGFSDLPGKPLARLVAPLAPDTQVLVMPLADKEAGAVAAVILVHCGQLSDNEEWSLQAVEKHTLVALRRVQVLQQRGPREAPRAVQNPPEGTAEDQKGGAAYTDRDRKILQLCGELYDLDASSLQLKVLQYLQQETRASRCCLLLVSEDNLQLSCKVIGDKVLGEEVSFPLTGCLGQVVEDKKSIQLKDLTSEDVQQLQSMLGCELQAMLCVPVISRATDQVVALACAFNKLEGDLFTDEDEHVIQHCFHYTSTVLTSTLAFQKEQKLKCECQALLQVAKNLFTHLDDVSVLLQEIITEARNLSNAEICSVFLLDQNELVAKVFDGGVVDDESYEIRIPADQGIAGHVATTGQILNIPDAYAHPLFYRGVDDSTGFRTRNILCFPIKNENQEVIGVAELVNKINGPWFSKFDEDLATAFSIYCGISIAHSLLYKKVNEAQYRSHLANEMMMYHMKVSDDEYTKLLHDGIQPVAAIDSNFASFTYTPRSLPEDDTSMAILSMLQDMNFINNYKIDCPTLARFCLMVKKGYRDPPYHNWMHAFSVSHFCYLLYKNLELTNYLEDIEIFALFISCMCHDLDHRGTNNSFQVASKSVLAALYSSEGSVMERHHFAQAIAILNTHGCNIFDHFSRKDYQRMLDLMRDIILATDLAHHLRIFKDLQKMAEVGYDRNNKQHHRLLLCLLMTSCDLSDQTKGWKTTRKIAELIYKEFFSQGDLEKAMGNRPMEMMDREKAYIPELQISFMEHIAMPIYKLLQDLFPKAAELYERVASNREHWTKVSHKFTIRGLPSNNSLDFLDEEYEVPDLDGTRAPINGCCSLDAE

[9] = Inhibition of Phosphodiesterase 5
Phosphodiesterase 3 = Phosphodiesterase 3 (Homo sapiens, UniProt Q14432+Q13370); test: Inhibition of Phosphodiesterase 3; type: protein assay
[10] = Inhibition of Phosphodiesterase 4

Row | Compound | Ratio [1] | Ratio [2] | Ratio [3] | Ratio [4] | Ratio [5] | pIC50 [6] | pIC50 [7] | pIC50 [8] | pIC50 [9] | IC50 (Phosphodiesterase 3) | pIC50 [10]
1 | CCOC(=O)c1sc(Nc2nc(N3CCNCC3)c3c(n2)N(Cc2cccnc2)CCC3)nc1C | 162 | 33 | 390 | 35 | 13 | 7.00 | – | – | – | – | –
2 | CCOC(=O)c1sc(Nc2nc(N3CCNCC3)c3c(n2)N(Cc2cc(OC)c(OC)c(OC)c2)CCC3)nc1C | 166 | 114 | 734 | 105 | 182 | 7.52 | – | – | – | – | –
3 | CCOC(=O)c1sc(Nc2nc(N3CCN(C)CC3)c3c(n2)N(Cc2cc(OC)c(OC)c(OC)c2)CCO3)nc1C | 64 | – | 206 | 67 | 64 | 7.15 | – | – | – | – | –
4 | CCOC(=O)c1sc(Nc2nc(NCc3ccc(OC)c(OC)c3)c3c(ncn3CC)n2)nc1C | 1.5 | 11 | 3.8 | 7.3 | 1.8 | 6.82 | 6.66 | 5.77 | 6.57 | 580 nM | –
5 | CCOC(=O)c1sc(Nc2nc(N3CCNCC3)c3c(n2)N(Cc2cc(OC)c(OC)c(OC)c2)CCO3)nc1C | 1170 | – | 3850 | 1200 | 1240 | 8.30 | – | – | – | – | –
6 | CCOC(=O)c1sc(Nc2nc(N3CCN(O)CC3)c3c(n2)N(Cc2ccccn2)CC3)nc1C | 35 | – | 154 | 13 | 7 | 6.82 | – | – | – | – | –
7 | CCOC(=O)c1sc(Nc2nc(N3CCNCC3)c3c(n2)N(Cc2ccc(S(C)(=O)=O)cc2)CCC3)nc1C | 157 | 27 | 392 | 54 | 8 | 7.22 | – | – | – | – | –
8 | CCCc1nn(C)c2c(=O)[nH]c(-c3cc(S(=O)(=O)N4CCN(C)CC4)ccc3OCC)nc12 | – | – | – | – | – | < 5.00 | < 5.00 | – | 7.96 | – | 5.34
9 | COc1ccc(C2CNC(=O)C2)cc1OC1CCCC1 (stereo not given) [ROLIPRAM] | – | – | – | – | – | < 5.00 | < 5.00 | < 5.00 | < 5.00 | > 10000 nM | 6.13
10 | CCOC(=O)c1sc(Nc2nc(N3CCNCC3)c3c(n2)N(Cc2cc(OC)c(OC)c(OC)c2)CC3)nc1C | 576 | – | 1880 | 795 | 362 | 8.22 | – | – | – | – | –
11 | CCOC(=O)c1sc(Nc2nc(NCc3ccc(S(N)(=O)=O)cc3)c3c(ncn3CC)n2)nc1C | – | – | – | – | – | 7.96 | 6.02 | 6.02 | 7.96 | 2970 nM | 6.26
12 | CCOC(=O)c1sc(Nc2nc(N3CCN(C)CC3)c3c(n2)N(Cc2cc(OC)c(OC)c(OC)c2)CCC3)nc1C | 39 | – | 174 | 27 | 9 | 6.82 | – | – | – | – | –
13 | CCOC(=O)c1sc(Nc2nc(N3CCN(C)CC3)c3c(n2)N(Cc2cc(OC)c(OC)c(OC)c2)CC3)nc1C | 156 | – | 315 | 189 | 104 | 7.70 | – | – | – | – | –
14 | CCOC(=O)c1sc(Nc2nc(NC)c3ncn(Cc4ccc(S(C)(=O)=O)cc4)c3n2)nc1C | 556 | – | 259 | 3 | 8 | 7.05 | 4.30 | – | 6.14 | 23300 nM | 6.57
15 | CCOC(=O)c1sc(Nc2nc(N3CCNCC3)c3c(n2)N(Cc2ccc(S(C)(=O)=O)cc2)CC3)nc1C | 352 | – | 1030 | 94 | 1 | 7.70 | – | – | – | – | –
16 | CCOC(=O)c1sc(Nc2nc(NC)c3c(n2)N(Cc2ccc(S(C)(=O)=O)cc2)CC3)nc1C | – | – | – | 6 | – | 6.47 | – | – | – | – | –
